One data set has as its target T1, Cytochrome P450 1B1 (Homo sapiens, UniProt Q16678).
T1 sequence (Q16678 whole entry): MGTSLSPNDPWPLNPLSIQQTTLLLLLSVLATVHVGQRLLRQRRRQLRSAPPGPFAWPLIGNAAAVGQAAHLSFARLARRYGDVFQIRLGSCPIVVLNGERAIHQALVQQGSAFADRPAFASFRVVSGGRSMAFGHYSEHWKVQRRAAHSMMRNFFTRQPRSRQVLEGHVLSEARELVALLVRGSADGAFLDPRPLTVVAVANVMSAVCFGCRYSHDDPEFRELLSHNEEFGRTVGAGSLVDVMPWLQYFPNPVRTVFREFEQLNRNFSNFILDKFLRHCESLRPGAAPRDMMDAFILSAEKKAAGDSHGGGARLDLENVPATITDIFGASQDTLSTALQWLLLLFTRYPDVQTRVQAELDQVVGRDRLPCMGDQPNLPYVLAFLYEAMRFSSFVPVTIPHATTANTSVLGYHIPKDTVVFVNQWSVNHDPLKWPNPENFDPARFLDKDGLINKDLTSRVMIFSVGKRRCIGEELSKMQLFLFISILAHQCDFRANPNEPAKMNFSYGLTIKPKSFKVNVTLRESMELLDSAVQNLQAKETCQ
In words: Inhibition of human CYP1B1 expressed in yeast cells. Type of data set: cell-based.

For data set [1], the species on record is Homo sapiens. In words: Selectivity ratio of IC50 for human CYP1A2 expressed in yeast microsomal membranes to IC50 for human CYP1A1 expressed in yeast microsomal membranes. Type of data set: cell membranes.
The species named for data set [2] is Homo sapiens. Kind of data set: Selectivity ratio of IC50 for human CYP1B1 expressed in yeast microsomal membranes to IC50 for human CYP1A1 expressed in yeast microsomal membranes. Type of data set: cell membranes.
The next data set addresses Cytochrome P450 3A4 (Homo sapiens, UniProt P08684). In words: Inhibition of recombinant human CYP3A4 expressed in HEK293 cells using dibenzylfluorescein as substrate pretreated for 30 mins followed by substrate addition measured for 60 mins by fluorescence assay. Type of data set: ADME.
Data set [3] concerns the target T2, Cytochrome P450 1A1 (Homo sapiens, UniProt P04798).
T2 sequence (P04798 whole entry): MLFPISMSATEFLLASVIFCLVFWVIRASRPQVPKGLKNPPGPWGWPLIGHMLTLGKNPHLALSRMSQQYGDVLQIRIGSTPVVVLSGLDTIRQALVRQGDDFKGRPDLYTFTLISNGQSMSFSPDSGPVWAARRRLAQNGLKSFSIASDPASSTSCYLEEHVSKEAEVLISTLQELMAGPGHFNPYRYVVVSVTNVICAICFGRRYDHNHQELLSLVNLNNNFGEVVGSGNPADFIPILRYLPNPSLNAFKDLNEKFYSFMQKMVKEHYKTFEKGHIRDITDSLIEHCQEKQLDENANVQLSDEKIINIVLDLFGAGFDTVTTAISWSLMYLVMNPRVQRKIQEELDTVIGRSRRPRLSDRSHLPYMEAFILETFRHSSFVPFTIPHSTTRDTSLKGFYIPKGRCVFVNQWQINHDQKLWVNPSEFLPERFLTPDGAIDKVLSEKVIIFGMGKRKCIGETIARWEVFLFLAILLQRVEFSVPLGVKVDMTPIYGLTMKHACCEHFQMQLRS
In words: Competitive inhibition of human CYP1A1 using 7-ethoxyresorufin as substrate.

The target of a further data set is T3, Cytochrome P450 2A6 (Homo sapiens, UniProt P11509).
T3 sequence (P11509 whole entry): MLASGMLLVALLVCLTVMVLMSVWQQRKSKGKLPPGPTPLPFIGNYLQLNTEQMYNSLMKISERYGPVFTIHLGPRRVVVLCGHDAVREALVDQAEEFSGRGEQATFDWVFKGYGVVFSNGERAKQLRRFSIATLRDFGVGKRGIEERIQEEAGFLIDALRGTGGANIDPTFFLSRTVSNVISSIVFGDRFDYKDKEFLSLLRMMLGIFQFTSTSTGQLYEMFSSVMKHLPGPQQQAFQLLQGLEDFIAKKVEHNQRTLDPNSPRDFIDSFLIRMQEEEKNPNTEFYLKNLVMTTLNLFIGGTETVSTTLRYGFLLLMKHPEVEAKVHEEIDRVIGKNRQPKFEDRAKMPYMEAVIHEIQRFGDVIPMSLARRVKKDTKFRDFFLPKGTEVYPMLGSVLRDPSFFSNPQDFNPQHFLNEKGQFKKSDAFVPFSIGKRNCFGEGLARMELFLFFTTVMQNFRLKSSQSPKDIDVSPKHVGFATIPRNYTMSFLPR
In words: Inhibition of human CYP2A6 expressed in yeast cells. Type of data set: ADME, cell-based.

Data set [4] deals with T2, Cytochrome P450 1A1. In words: Inhibition of human CYP1A1 expressed in yeast cells. Type of data set: cell-based.
Data set [5] addresses T4, Cytochrome P450 2D6 (Homo sapiens, UniProt P10635). Kind of data set: Inhibition of human CYP2D6 expressed in yeast microsomal membranes using 7-ethoxy-methyloxy-3-cyanocoumarin as substrate measured after 10 mins by fluorescence assay. Type of data set: ADME, cell membranes, Microsomal Membrane.
For data set [6], the target named is T5, Aryl hydrocarbon receptor (Homo sapiens, UniProt P35869).
T5 sequence (P35869 whole entry): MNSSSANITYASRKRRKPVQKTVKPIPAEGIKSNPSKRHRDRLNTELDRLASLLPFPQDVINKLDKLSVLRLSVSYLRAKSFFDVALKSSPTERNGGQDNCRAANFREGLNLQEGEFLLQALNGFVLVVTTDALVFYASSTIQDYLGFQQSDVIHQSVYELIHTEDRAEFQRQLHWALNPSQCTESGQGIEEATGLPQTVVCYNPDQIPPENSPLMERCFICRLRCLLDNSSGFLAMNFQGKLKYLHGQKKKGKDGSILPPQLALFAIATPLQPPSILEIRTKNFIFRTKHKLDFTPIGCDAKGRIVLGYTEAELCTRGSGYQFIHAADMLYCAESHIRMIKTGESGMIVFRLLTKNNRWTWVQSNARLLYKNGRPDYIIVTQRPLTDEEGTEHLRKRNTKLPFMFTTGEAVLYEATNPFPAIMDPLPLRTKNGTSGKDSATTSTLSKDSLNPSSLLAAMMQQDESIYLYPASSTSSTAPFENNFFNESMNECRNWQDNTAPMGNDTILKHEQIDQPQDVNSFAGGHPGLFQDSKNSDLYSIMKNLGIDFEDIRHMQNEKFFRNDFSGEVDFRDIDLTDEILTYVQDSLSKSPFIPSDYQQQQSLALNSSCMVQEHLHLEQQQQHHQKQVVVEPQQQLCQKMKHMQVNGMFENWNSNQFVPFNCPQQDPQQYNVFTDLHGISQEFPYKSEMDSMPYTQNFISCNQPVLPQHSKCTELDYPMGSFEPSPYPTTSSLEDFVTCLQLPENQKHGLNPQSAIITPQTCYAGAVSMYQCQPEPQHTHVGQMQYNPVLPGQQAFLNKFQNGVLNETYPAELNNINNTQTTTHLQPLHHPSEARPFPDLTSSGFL
In words: Antagonist activity at recombinant human eGFP-fused Ahr expressed in yeast cells co-expressing ARNT assessed as inhibition of benzo(a)pyrene-induced Ahr activation at 1 uM measured after 18 hrs by fluorescence assay. Format: cell-based.

The target of data set [7] is T4, Cytochrome P450 2D6. In words: Inhibition of recombinant human CYP2D6 expressed in HEK293 cells using 7-ethoxy-methyloxy-3-cyanocoumarin as substrate pretreated for 30 mins followed by substrate addition measured for 60 mins by fluorescence assay. Format: ADME, cell-based.

The term IC50 denotes the concentration that gives 50% inhibition. Broadly, the Ki is the equilibrium dissociation constant of an inhibitor or competing ligand from its target. High values mean a looser hold on the target, low ones a stronger hold on the target.

T4 sequence (P10635 whole entry): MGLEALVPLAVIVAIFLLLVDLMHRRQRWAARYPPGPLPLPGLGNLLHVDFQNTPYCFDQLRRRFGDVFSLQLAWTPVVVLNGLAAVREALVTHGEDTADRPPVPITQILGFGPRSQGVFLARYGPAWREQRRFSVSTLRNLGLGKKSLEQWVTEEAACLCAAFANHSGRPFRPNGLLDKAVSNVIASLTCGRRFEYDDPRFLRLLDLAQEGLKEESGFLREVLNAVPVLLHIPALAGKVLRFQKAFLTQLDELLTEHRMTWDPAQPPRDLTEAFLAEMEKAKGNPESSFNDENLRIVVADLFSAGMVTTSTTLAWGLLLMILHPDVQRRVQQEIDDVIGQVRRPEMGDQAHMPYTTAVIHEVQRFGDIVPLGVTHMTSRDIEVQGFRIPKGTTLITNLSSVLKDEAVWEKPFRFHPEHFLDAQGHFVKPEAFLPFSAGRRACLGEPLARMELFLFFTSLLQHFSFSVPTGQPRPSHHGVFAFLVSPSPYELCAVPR
Cytochrome P450 3A4, sequence (P08684 whole entry): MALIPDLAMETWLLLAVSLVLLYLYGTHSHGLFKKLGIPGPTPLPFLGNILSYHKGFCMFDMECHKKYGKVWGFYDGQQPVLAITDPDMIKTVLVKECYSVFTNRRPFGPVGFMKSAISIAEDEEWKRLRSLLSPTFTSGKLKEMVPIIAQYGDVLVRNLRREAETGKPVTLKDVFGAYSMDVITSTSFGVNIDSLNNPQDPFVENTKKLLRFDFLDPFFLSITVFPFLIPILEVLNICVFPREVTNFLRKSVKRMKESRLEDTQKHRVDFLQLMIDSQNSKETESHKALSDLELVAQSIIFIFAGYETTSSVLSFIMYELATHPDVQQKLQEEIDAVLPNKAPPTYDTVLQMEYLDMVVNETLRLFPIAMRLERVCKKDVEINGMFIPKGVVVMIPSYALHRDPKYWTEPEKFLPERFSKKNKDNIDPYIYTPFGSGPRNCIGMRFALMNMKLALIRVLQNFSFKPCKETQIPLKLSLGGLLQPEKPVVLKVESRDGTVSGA

Take `COc1cc(/C=C/C(=O)c2ccncc2)cc(OC)c1OC`: the IC50 against Cytochrome P450 1B1 is 6.12 µM; on Cytochrome P450 3A4, more than 10 µM; against Cytochrome P450 2A6 it was more than 10 µM; against Cytochrome P450 1A1 [4], 0.15 µM; at Cytochrome P450 2D6 [5] it was 5 µM; on Cytochrome P450 2D6 [7], more than 10 µM. Also, the Ratio IC50 in the data set filed under Homo sapiens [1] and in the data set filed under Homo sapiens [2] was more than 10 throughout. This molecule also displayed a Ki at Cytochrome P450 1A1 [3] of 0.28 µM. Moreover, in data set [6], the “inhibition (INH)” value is recorded as “Active”.

These data come from ChEMBL document CHEMBL4177690, “(E)-3-(3,4,5-Trimethoxyphenyl)-1-(pyridin-4-yl)prop-2-en-1-one, a heterocyclic chalcone is a potent and selective CYP1A1 inhibitor and cancer chemopreventive agent” (Bioorg Med Chem Lett, 2017).
